Experimental data published in PubChem BioAssay (NCI).
Values joined by “and” are separate entries in the source; they are usually repeats but may differ in a detail not shown here. Identical values can stand only once.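 Cells were grown in 96-well plates and exposed to each compound for 48 hours at five concentrations; endpoints were interpolated linearly between bracketing concentrations, or set to the highest concentration if not reached. GI50 = concentration required for 50% inhibition of growth. TGI denotes the concentration required for complete inhibition of growth.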

What was measured:
Assay in all cases: NCI anticancer screen, dose series, 48 h
A549 NSCLC = system: A549 NSCLC
CAKI-1 renal = system: CAKI-1 renal
CCRF-CEM leukemia = system: CCRF-CEM leukemia
EKVX NSCLC = system: EKVX NSCLC
HCT-116 colon = system: HCT-116 colon
HCT-15 colon = system: HCT-15 colon
HOP-92 NSCLC = system: HOP-92 NSCLC
KM20L2 colon = system: KM20L2 colon
LOX IMVI melanoma = system: LOX IMVI melanoma
SK-MEL-28 melanoma = system: SK-MEL-28 melanoma

Compound	GI50 (A549 NSCLC)	TGI (A549 NSCLC)	GI50 (CAKI-1 renal)	TGI (CAKI-1 renal)	GI50 (CCRF-CEM leukemia)	TGI (CCRF-CEM leukemia)	GI50 (EKVX NSCLC)	TGI (EKVX NSCLC)	GI50 (HCT-116 colon)	TGI (HCT-116 colon)	GI50 (HCT-15 colon)	TGI (HCT-15 colon)	GI50 (HOP-92 NSCLC)	TGI (HOP-92 NSCLC)	GI50 (KM20L2 colon)	TGI (KM20L2 colon)	GI50 (LOX IMVI melanoma)	TGI (LOX IMVI melanoma)	GI50 (SK-MEL-28 melanoma)	TGI (SK-MEL-28 melanoma)
COc1cccc(/C=N/[N-]C(=O)c2ccncc2)c1[O-].[Mn+2].[OH3+]	5.69 µM	> 100 µM	8.97 µM	> 100 µM	1.8 µM	6.26 µM	9.25 µM	> 100 µM	3.63 µM	> 100 µM	4.14 µM	> 100 µM	24.7 µM	> 100 µM	4.51 µM	> 100 µM	6.59 µM	> 100 µM	11.2 µM	> 100 µM
C[C@H]1CCC/C=C/C2CC(OC(=O)CN(C)C)CC2C(OC(=O)CN(C)C)/C=C/C(=O)O1 (stereo partly specified)	0.68 µM	> 100 µM	0.38 µM	7.69 µM	0.647 µM	> 40.6 µM	0.558 µM	> 87.8 µM	0.762 µM	16.7 µM	0.272 µM	> 32.4 µM	1.69 µM	12.5 µM	0.266 µM	0.979 µM	1.16 µM	2.67 µM	0.472 µM	> 100 µM
NC(Cc1ccccc1)C(=O)OCN1C(=O)C2C3C=CC(C2C1=O)C1C2C(=O)N(COC(=O)C(N)Cc4ccccc4)C(=O)C2C31 (stereo unspecified)		61.7 µM and 48.7 µM	37.8 µM and 77.2 µM	> 100 µM		50.3 µM and > 100 µM		> 100 µM		33.9 µM and 46.2 µM		35.2 µM and 35.3 µM		95.4 µM and > 100 µM		67.2 µM and 51.5 µM		41.4 µM and 36.8 µM		44.4 µM and 36 µM
NC1=NN(c2ccccc2)C(=O)C1C(=O)C(=O)Nc1ccc(Cl)cc1 (stereo unspecified)		> 100 µM		> 100 µM		> 100 µM		> 100 µM		> 100 µM		> 100 µM		> 100 µM		> 100 µM		> 100 µM		> 100 µM
C/C(=C1/N=C(c2cc([N+](=O)[O-])ccc2Cl)N(c2ccc(Br)cc2)C1=O)c1ccc(N(CCC#N)CCC#N)cc1C		62.6 µM		> 100 µM		32.7 µM		> 100 µM		29.5 µM		58.7 µM		> 100 µM		> 100 µM		29.1 µM		> 100 µM
Nc1cn(C2OC(CC(c3ccccc3)(c3ccccc3)c3ccccc3)C(O)C2O)c(=O)[nH]c1=O (stereo unspecified)		83.1 µM		57.1 µM		63.1 µM		> 100 µM		32 µM		33.3 µM		39 µM		42.1 µM		35.2 µM		81.7 µM
Cc1ccccc1/C=C/c1csnn1		> 100 µM		> 100 µM		> 100 µM		> 100 µM		> 59.3 µM		> 57.5 µM		> 100 µM		> 100 µM		> 100 µM		> 100 µM
c1ccc2c(c1)[nH]c1cnc3c4ncccc4[nH]c3c12		> 100 µM		> 100 µM		> 100 µM		> 100 µM		> 100 µM		> 100 µM		79.3 µM		> 100 µM		> 100 µM		> 100 µM
O=C1C=CC2(CCCCCCC2=O)CC1 (stereo unspecified)		> 100 µM		> 100 µM		> 100 µM		> 100 µM		> 100 µM		> 100 µM		> 100 µM		> 100 µM		> 100 µM		> 100 µM
